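Briefly, cells in 96-well plates were exposed to five compound concentrations for 48 h, and endpoints were estimated by linear interpolation. GI50: concentration for 50% inhibition of growth. TGI: total growth inhibition.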
Experiments:
Test in all cases: growth of human tumour cells (NCI), 48 h
[1] = system: 786-0 renal
[2] = system: A498 renal
[3] = system: A549 NSCLC
[4] = system: ACHN renal
[5] = system: BT-549 breast
[6] = system: CAKI-1 renal
[7] = system: CCRF-CEM leukemia
[8] = system: COLO 205 colon
[9] = system: DU-145 prostate
[10] = system: EKVX NSCLC
[11] = system: HCC-2998 colon
[12] = system: HCT-116 colon
[13] = system: HCT-15 colon
[14] = system: HL-60(TB) leukemia
[15] = system: HOP-62 NSCLC
[16] = system: HOP-92 NSCLC
[17] = system: HS 578T breast
[18] = system: HT29 colon
[19] = system: IGROV1 ovarian
[20] = system: K-562 leukemia
[21] = system: KM12 colon
[22] = system: LOX IMVI melanoma
[23] = system: M14 melanoma
[24] = system: MALME-3M melanoma
[25] = system: MCF7 breast
[26] = system: MDA-MB-231 breast
[27] = system: MDA-MB-435
[28] = system: MOLT-4 leukemia
[29] = system: NCI-H226 lung
[30] = system: NCI-H23 lung
[31] = system: NCI-H460 lung
[32] = system: NCI-H522 lung
[33] = system: NCI/ADR-RES ovarian
[34] = system: OVCAR-3 ovarian
[35] = system: OVCAR-4 ovarian
[36] = system: OVCAR-5 ovarian
[37] = system: OVCAR-8 ovarian
[38] = system: PC-3 prostate
[39] = system: RPMI-8226 leukemia
[40] = system: RXF 393 renal
[41] = system: SF-268 CNS
[42] = system: SF-295 CNS
[43] = system: SF-539 CNS
[44] = system: SK-MEL-2 melanoma
[45] = system: SK-MEL-28 melanoma
[46] = system: SK-MEL-5 melanoma
[47] = system: SK-OV-3 ovarian
[48] = system: SN12C renal
[49] = system: SNB-19 CNS
[50] = system: SNB-75 CNS
[51] = system: SR leukemia
[52] = system: SW-620 colon
[53] = system: T-47D breast
[54] = system: U251 CNS
[55] = system: UACC-257 melanoma
[56] = system: UACC-62 melanoma
[57] = system: UO-31 renal
[58] = system: TK-10 renal

COc1cc(-c2csc(NC(=O)Nc3ccc(C(F)(F)F)cc3)n2)cc(OC)c1OC
GI50 [1]: 1.62 µM
TGI [1]: 3.54 µM
GI50 [2]: 1.99 µM
TGI [2]: 5.09 µM
GI50 [3]: 2.74 µM
TGI [3]: 11.7 µM
GI50 [4]: 2.11 µM
TGI [4]: 6.13 µM
GI50 [5]: 2.22 µM
TGI [5]: 6.94 µM
GI50 [6]: 2.41 µM
TGI [6]: 8.62 µM
GI50 [7]: 3.49 µM
TGI [7]: 18.9 µM
GI50 [8]: 2.1 µM
TGI [8]: 4.5 µM
GI50 [9]: 3.22 µM
TGI [9]: 12.8 µM
GI50 [10]: 2.15 µM
TGI [10]: 10.2 µM
GI50 [11]: 2.71 µM
TGI [11]: 9.34 µM
GI50 [12]: 2.32 µM
TGI [12]: 8.16 µM
GI50 [13]: 1.71 µM
TGI [13]: 4.09 µM
GI50 [14]: 3.75 µM
TGI [14]: 8.05 µM
GI50 [15]: 2.01 µM
TGI [15]: 5.07 µM
GI50 [16]: 1.61 µM
TGI [16]: 4.73 µM
GI50 [17]: 2.17 µM
TGI [17]: 5.47 µM
GI50 [18]: 2.39 µM
TGI [18]: 7.08 µM
GI50 [19]: 2.86 µM
TGI [19]: 13.5 µM
GI50 [20]: 3.04 µM
TGI [20]: > 100 µM
GI50 [21]: 2.09 µM
TGI [21]: 7.48 µM
GI50 [22]: 1.59 µM
TGI [22]: 3.15 µM
GI50 [23]: 2 µM
TGI [23]: 5.1 µM
GI50 [24]: 1.85 µM
TGI [24]: 4.94 µM
GI50 [25]: 2.21 µM
TGI [25]: 7.66 µM
GI50 [26]: 1.55 µM
TGI [26]: 3.69 µM
GI50 [27]: 1.71 µM
TGI [27]: 3.74 µM
GI50 [28]: 1.85 µM
TGI [28]: 5.46 µM
GI50 [29]: 2.35 µM
TGI [29]: 8.4 µM
GI50 [30]: 2.48 µM
TGI [30]: 8.81 µM
GI50 [31]: 2.52 µM
TGI [31]: 7.01 µM
GI50 [32]: 1.9 µM
TGI [32]: 5.88 µM
GI50 [33]: 2.12 µM
TGI [33]: 6.94 µM
GI50 [34]: 2 µM
TGI [34]: 5.22 µM
GI50 [35]: 2.02 µM
TGI [35]: 9.07 µM
GI50 [36]: 2.64 µM
TGI [36]: 9.9 µM
GI50 [37]: 2.97 µM
TGI [37]: 10.5 µM
GI50 [38]: 1.84 µM
TGI [38]: 8.2 µM
GI50 [39]: 2.26 µM
TGI [39]: 8.69 µM
GI50 [40]: 2.18 µM
TGI [40]: 5.89 µM
GI50 [41]: 2.92 µM
TGI [41]: 13.7 µM
GI50 [42]: 1.66 µM
TGI [42]: 4.35 µM
GI50 [43]: 2.28 µM
TGI [43]: 6.68 µM
GI50 [44]: 2.43 µM
TGI [44]: 5.81 µM
GI50 [45]: 2.22 µM
TGI [45]: 5.79 µM
GI50 [46]: 1.62 µM
TGI [46]: 3 µM
GI50 [47]: 2.68 µM
TGI [47]: 8.33 µM
GI50 [48]: 2.62 µM
TGI [48]: 8.89 µM
GI50 [49]: 2.69 µM
TGI [49]: 12.3 µM
GI50 [50]: 1.43 µM
TGI [50]: 5.52 µM
GI50 [51]: 2.39 µM
TGI [51]: 6.79 µM
GI50 [52]: 2.19 µM
TGI [52]: 5.3 µM
GI50 [53]: 1.97 µM
TGI [53]: 7.65 µM
GI50 [54]: 1.97 µM
TGI [54]: 4.32 µM
GI50 [55]: 2.47 µM
TGI [55]: 5.91 µM
GI50 [56]: 1.99 µM
TGI [56]: 5.38 µM
GI50 [57]: 1.77 µM
TGI [57]: 5.29 µM

COC(=O)c1cc2c3ccccc3[nH]c2c2sccc12
GI50 [1]: 13.8 µM
TGI [1]: 40.7 µM
GI50 [2]: 21 µM
TGI [2]: 50.6 µM
GI50 [3]: 25.5 µM
TGI [3]: > 100 µM
GI50 [4]: 13.6 µM
TGI [4]: > 100 µM
GI50 [5]: 20.2 µM
TGI [5]: 57 µM
GI50 [6]: 13.7 µM
TGI [6]: 98.3 µM
GI50 [7]: 46 µM
TGI [7]: > 100 µM
GI50 [8]: 17 µM
TGI [8]: 41.8 µM
GI50 [9]: 19.7 µM
TGI [9]: 66.5 µM
GI50 [10]: 4.12 µM
TGI [10]: > 100 µM
GI50 [11]: 19.4 µM
TGI [11]: 43.5 µM
GI50 [12]: 34.1 µM
TGI [12]: > 100 µM
GI50 [13]: 8.9 µM
TGI [13]: 94.4 µM
GI50 [14]: > 100 µM
TGI [14]: > 100 µM
GI50 [15]: 11.2 µM
TGI [15]: 39.8 µM
GI50 [16]: 17.2 µM
TGI [16]: 99.7 µM
GI50 [17]: 13.5 µM
TGI [17]: 38.7 µM
GI50 [18]: 6.96 µM
TGI [18]: 18.7 µM
GI50 [19]: 4.31 µM
TGI [19]: > 100 µM
GI50 [20]: 15.2 µM
TGI [20]: > 100 µM
GI50 [21]: 12.3 µM
TGI [21]: 87.2 µM
GI50 [22]: 5.68 µM
TGI [22]: 24.8 µM
GI50 [24]: 29.3 µM
TGI [24]: 62.7 µM
GI50 [25]: 27 µM
TGI [25]: > 100 µM
GI50 [26]: 5.06 µM
TGI [26]: 61.3 µM
GI50 [27]: 20.3 µM
TGI [27]: > 100 µM
GI50 [28]: 15.7 µM
TGI [28]: > 100 µM
GI50 [29]: 68 µM
TGI [29]: > 100 µM
GI50 [30]: 33.8 µM
TGI [30]: > 100 µM
GI50 [31]: 20.1 µM
TGI [31]: 43.8 µM
GI50 [32]: 17.2 µM
TGI [32]: > 100 µM
GI50 [33]: 28.1 µM
TGI [33]: > 100 µM
GI50 [34]: 24.1 µM
TGI [34]: > 100 µM
GI50 [35]: 26.5 µM
TGI [35]: 76.9 µM
GI50 [36]: 23.1 µM
TGI [36]: > 100 µM
GI50 [37]: 38.3 µM
TGI [37]: > 100 µM
GI50 [38]: 22.1 µM
TGI [38]: > 100 µM
GI50 [39]: 15.1 µM
TGI [39]: > 100 µM
GI50 [40]: 23.6 µM
TGI [40]: 80.4 µM
GI50 [41]: 32.4 µM
TGI [41]: > 100 µM
GI50 [42]: 8.57 µM
TGI [42]: 48.7 µM
GI50 [43]: 21.5 µM
TGI [43]: 94.8 µM
GI50 [44]: 40.8 µM
TGI [44]: > 100 µM
GI50 [45]: 40.4 µM
TGI [45]: > 100 µM
GI50 [46]: 16.3 µM
TGI [46]: 35.4 µM
GI50 [47]: 34.1 µM
TGI [47]: > 100 µM
GI50 [48]: 21.8 µM
TGI [48]: 61.8 µM
GI50 [49]: 23.6 µM
TGI [49]: 79.7 µM
GI50 [50]: 19 µM
TGI [50]: 70.6 µM
GI50 [51]: 12.2 µM
TGI [51]: 56.5 µM
GI50 [52]: 35.1 µM
TGI [52]: > 100 µM
GI50 [53]: 6.73 µM
TGI [53]: 47.1 µM
GI50 [58]: 13.8 µM
TGI [58]: 52.6 µM
GI50 [54]: 14.3 µM
TGI [54]: 34 µM
GI50 [55]: 89.6 µM
TGI [55]: > 100 µM
GI50 [56]: 22.3 µM
TGI [56]: > 100 µM
GI50 [57]: 7.59 µM
TGI [57]: > 100 µM
